Results reported in ChEMBL document CHEMBL3612048, “Cytotoxic triterpenoid glycosides (saikosaponins) from the roots of Bupleurum chinense” (Bioorg Med Chem Lett, 2015).

Assays:
MCF7 = test: Cytotoxicity against human MCF7 cells assessed as induction of cell death incubated for 2 days by MTT assay; format: functional, cell-based; conditions: MCF7, 48 h
[1] = Cytotoxicity against human Hep3B cells assessed as induction of cell death incubated for 2 days by MTT assay; format: functional, cell-based, Hep 3B2; conditions: 48 h
Bcap37 = test: Cytotoxicity against human Bcap37 cells assessed as induction of cell death incubated for 2 days by MTT assay; format: functional, cell-based; conditions: Bcap37, 48 h
HepG2 = test: Cytotoxicity against human HepG2 cells assessed as induction of cell death incubated for 2 days by MTT assay; format: functional, cell-based; conditions: HepG2, 48 h
A549 = test: Cytotoxicity against human A549 cells assessed as induction of cell death incubated for 2 days by MTT assay; format: functional, cell-based; conditions: A549, 48 h

Compound	IC50 (MCF7)	IC50 [1]	IC50 (Bcap37)	IC50 (HepG2)	IC50 (A549)
C[C@H]1O[C@@H](O[C@H]2CC[C@@]3(C)[C@@H](CC[C@]4(C)[C@@H]3C=C[C@]35OC[C@@]6(CCC(C)(C)C[C@H]63)[C@@H](O)C[C@]54C)[C@]2(C)CO)[C@H](O)[C@@H](O)[C@H]1O	43.3 µM	19.8 µM	17.3 µM	13.3 µM	> 50 µM
CO[C@@H]1C=C2[C@@H]3CC(C)(C)CC[C@]3(CO)[C@@H](O)C[C@@]2(C)[C@]2(C)CC[C@H]3[C@](C)(CO)[C@@H](O[C@@H]4O[C@H](C)[C@H](O)[C@H](O)[C@H]4O)CC[C@]3(C)[C@@H]12	> 50 µM	> 50 µM	> 50 µM	30.2 µM	> 50 µM
CO[C@@H]1C=C2[C@@H]3CC(C)(C)CC[C@]3(CO)[C@@H](O)C[C@@]2(C)[C@]2(C)CC[C@H]3C(C)(C)[C@@H](O[C@@H]4O[C@H](C)[C@H](O)[C@H](O)[C@H]4O)CC[C@]3(C)[C@@H]12	> 50 µM	> 50 µM	> 50 µM	> 50 µM	> 50 µM
CC(=O)OC[C@@]1(C)[C@@H]2CC[C@]3(C)[C@H](C=C[C@]45OC[C@@]6(CCC(C)(C)C[C@H]64)[C@@H](O)C[C@]53C)[C@@]2(C)CC[C@@H]1O[C@@H]1O[C@H](C)[C@H](O)[C@H](O)[C@H]1O	33.5 µM	24.8 µM	26 µM	9.76 µM	34.1 µM
C[C@H]1O[C@@H](O[C@H]2CC[C@@]3(C)[C@@H](CC[C@]4(C)[C@@H]3C=CC3=C5CC(C)(C)CC[C@]5(CO)C(=O)C[C@]34C)[C@]2(C)CO)[C@H](O)[C@@H](O[C@@H]2O[C@H](CO)[C@@H](O)[C@H](O)[C@H]2O)[C@H]1O	> 50 µM	> 50 µM	> 50 µM	40.2 µM	> 50 µM
CO[C@@H]1C=C2C3CC(C)(C)CC[C@]3(CO)[C@H](O)C[C@@]2(C)[C@]2(C)CC[C@H]3[C@](C)(CO)[C@@H](O[C@@H]4O[C@H](C)[C@H](O)[C@H](O[C@@H]5O[C@H](CO)[C@@H](O)[C@H](O)[C@H]5O)[C@H]4O)CC[C@]3(C)[C@@H]12 (stereo partly specified)	> 50 µM	> 50 µM	> 50 µM	> 50 µM	> 50 µM
C[C@H]1O[C@@H](O[C@H]2CC[C@@]3(C)[C@@H](CC[C@]4(C)[C@@H]3C=C[C@]35OC[C@@]6(CCC(C)(C)C[C@H]63)[C@H](O)C[C@]54C)[C@]2(C)CO)[C@H](O)[C@@H](O)[C@H]1O	49 µM	20.4 µM	32 µM	9.34 µM	> 50 µM
C[C@H]1O[C@@H](O[C@H]2CC[C@@]3(C)[C@@H](CC[C@]4(C)[C@@H]3C=C[C@]35OC[C@@]6(CCC(C)(C)C[C@H]63)[C@H](O)C[C@]54C)[C@]2(C)CO)[C@H](O)[C@@H](O[C@@H]2O[C@H](CO)[C@@H](O)[C@H](O)[C@H]2O)[C@H]1O	7.68 µM	9.61 µM	10.7 µM	4.88 µM	30.8 µM
C[C@H]1O[C@@H](O[C@H]2CC[C@]3(C)[C@H]4C=C[C@]56OC[C@@]7(CCC(C)(C)C[C@H]75)[C@@H](O)C[C@@]6(C)[C@]4(C)CC[C@H]3C2(C)C)[C@H](O)[C@@H](O[C@@H]2O[C@H](CO)[C@@H](O)[C@H](O)[C@H]2O)[C@H]1O	21.3 µM	16.7 µM	15.4 µM	20.5 µM	> 50 µM
CC(=O)O[C@H]1[C@H](O[C@H]2[C@@H](O)[C@@H](C)O[C@@H](O[C@H]3CC[C@@]4(C)[C@@H](CC[C@]5(C)[C@@H]4C=C[C@]46OC[C@@]7(CCC(C)(C)C[C@H]74)[C@@H](O)C[C@]65C)[C@]3(C)CO)[C@@H]2O)O[C@H](CO)[C@@H](O)[C@@H]1O	30.1 µM	5.74 µM	17.7 µM	20.1 µM	38.9 µM
CC(=O)O[C@@H]1[C@@H](O)[C@H](O[C@H]2[C@@H](O)[C@@H](C)O[C@@H](O[C@H]3CC[C@@]4(C)[C@@H](CC[C@]5(C)[C@@H]4C=C[C@]46OC[C@@]7(CCC(C)(C)C[C@H]74)[C@@H](O)C[C@]65C)[C@]3(C)CO)[C@@H]2O)O[C@H](CO)[C@H]1O	22.2 µM	13.7 µM	26.6 µM	12.9 µM	38.2 µM
CC(=O)OC[C@H]1O[C@@H](O[C@H]2[C@@H](O)[C@@H](C)O[C@@H](O[C@H]3CC[C@@]4(C)[C@@H](CC[C@]5(C)[C@@H]4C=C[C@]46OC[C@@]7(CCC(C)(C)C[C@H]74)[C@@H](O)C[C@]65C)[C@]3(C)CO)[C@@H]2O)[C@H](O)[C@@H](O)[C@@H]1O	36.2 µM	16.9 µM	34.1 µM	20.8 µM	35.3 µM
CC(=O)OC[C@@]1(C)[C@@H]2CC[C@]3(C)[C@H](C=C[C@]45OC[C@@]6(CCC(C)(C)C[C@H]64)[C@@H](O)C[C@]53C)[C@@]2(C)CC[C@@H]1O[C@@H]1O[C@H](C)[C@H](O)[C@H](O[C@@H]2O[C@H](CO)[C@@H](O)[C@H](O)[C@H]2O)[C@H]1O	> 50 µM	> 50 µM	> 50 µM	> 50 µM	> 50 µM
C[C@@H]1O[C@@H](O[C@H]2[C@H](O)[C@@H](O)[C@H](O[C@H]3CC[C@]4(C)[C@H]5C=C[C@]67OC[C@@]8(CCC(C)(C)C[C@H]86)[C@@H](O)C[C@@]7(C)[C@]5(C)CC[C@H]4C3(C)C)O[C@@H]2CO[C@@H]2O[C@H](CO)[C@@H](O)[C@H](O)[C@H]2O)[C@H](O)[C@H](O)[C@H]1O	> 50 µM	> 50 µM	> 50 µM	> 50 µM	> 50 µM
CC(=O)OC[C@H]1O[C@@H](O[C@H]2[C@@H](O)[C@@H](C)O[C@@H](O[C@H]3CC[C@@]4(C)[C@@H](CC[C@]5(C)[C@@H]4C=C[C@]46OC[C@@]7(CCC(C)(C)C[C@H]74)[C@H](O)C[C@]65C)[C@]3(C)CO)[C@@H]2O)[C@H](O)[C@@H](O)[C@@H]1O	9.98 µM	7.59 µM	17.7 µM	8.29 µM	15.3 µM
C[C@H]1O[C@@H](O[C@H]2CC[C@@]3(C)[C@@H](CC[C@]4(C)[C@@H]3C=CC3=C5CC(C)(C)CC[C@]5(CO)[C@H](O)C[C@]34C)[C@]2(C)CO)[C@H](O)[C@@H](O)[C@H]1O	29.6 µM	16.5 µM	38.4 µM	18.9 µM	> 50 µM
C[C@H]1O[C@@H](O[C@H]2CC[C@@]3(C)[C@@H](CC[C@]4(C)[C@@H]3C=CC3=C5CC(C)(C)CC[C@]5(CO)[C@@H](O)C[C@]34C)[C@]2(C)CO)[C@H](O)[C@@H](O)[C@H]1O	42.1 µM	19.8 µM	43.2 µM	26.2 µM	> 50 µM
C[C@H]1O[C@@H](O[C@H]2CC[C@@]3(C)[C@@H](CC[C@]4(C)[C@@H]3C=CC3=C5CC(C)(C)CC[C@]5(CO)[C@@H](O)C[C@]34C)[C@]2(C)CO)[C@H](O)[C@@H](O[C@@H]2O[C@H](CO)[C@@H](O)[C@H](O)[C@H]2O)[C@H]1O	> 50 µM	> 50 µM	> 50 µM	> 50 µM	> 50 µM
C[C@H]1O[C@@H](O[C@H]2CC[C@@]3(C)[C@@H](CC[C@]4(C)[C@@H]3C=C[C@]35OC[C@@]6(CCC(C)(C)C[C@H]63)C(=O)C[C@]54C)[C@]2(C)CO)[C@H](O)[C@@H](O[C@@H]2O[C@H](CO)[C@@H](O)[C@H](O)[C@H]2O)[C@H]1O	24 µM	7.75 µM	20.2 µM	20.6 µM	34.1 µM
O=c1[nH]cc(F)c(=O)[nH]1 [FLUOROURACIL]	–	1.5 µM	–	–	–
C[C@H]1O[C@@H](O[C@H]2CC[C@@]3(C)[C@@H](CC[C@]4(C)[C@@H]3C=C[C@]35OC[C@@]6(CCC(C)(C)C[C@H]63)[C@@H](O)C[C@]54C)[C@]2(C)CO)[C@H](O)[C@@H](O[C@@H]2O[C@H](CO)[C@@H](O)[C@H](O)[C@H]2O)[C@H]1O [SAIKOSAPONIN A]	19 µM	13 µM	14 µM	8.34 µM	14.5 µM
